Assay results reported in US20100311170A1, “METHOD FOR REPROGRAMMING DIFFERENTIATED CELLS” (priority 2008, published 2010).

Columns and labels:
Type in all cases: cell-based, mouse
[1] = test system: ES cells fused with NS-Oct4-puro cells; assay: Pretreated-ES×NS PEG fusions (ES cells pre-cultured with Wnt3a or BIO, then fused with non-treated NS-Oct4-puro cells); settings: for enhancement of NS reprogramming: ES cells cultured for 12, 48 and 72 h; for total reprogrammed clones / increase in the numbers of reprogrammed clones: ES cells pre-cultured for 24 h and 96 h; for increase in the numbers of reprogrammed clones: Wnt3a 100 ng/ml or BIO 1 μM
Description: On the last day, the cells were trypsinized, counted, and plated on NS cells for fusions or harvested for RNA and protein analyses. PEG fusions and drug selection were performed as previously described.

ES-neo×MEF-hygro = assay: PEG fusion of ES-neo cells with MEF-hygro cells, hybrids treated after fusion; reprogrammed AP-positive clones counted
Description: (§1) ES×NS and ES×MEF PEG fusions: 1.2×10^6 NS cells or MEFs were plated into T25 flasks. After 2 h, 1.2×10^6 ES cells were plated onto them, allowing them to attach to the NS cells or MEFs.

[2] = test system: ES-hygro×thymocyte-neo cells; assay: ES×thymocyte fusion, hybrids cultured in BIO; reprogrammed clones counted
Description: ES×thymocyte fusions: the cells were fused in suspensions as previously described (Silva et al., 2006). After fusion, they were packed by centrifugation and the supernatant was discarded. The pelleted cells were resuspended in complete ES-cell medium and plated. The selection was carried out after 24 h, using hygromycin plus neomycin.

[3] = test system: Topflash reporter gene (β-catenin binding sites fused to luciferase); assay: Topflash luciferase reporter assay in ES cells; settings: 24 h
Description: ES cells were co-transfected by nucleofection (Amaxa) with the Topflash reporter construct driving firefly luciferase cDNA and a pRL-CMV driving constitutive expression of renilla cDNA for normalization. Treatments with Wnt3a and BIO were carried out the day after the nucleofection and cells were lysed with 1× passive reporter lysis buffer. Firefly and renilla reporter activities were measured using a 96-well-based luminometer and were detected as per manufacturer instructions (Promega Dual-Light system),

[4] = test system: ES-GFP cells with NS-Oct4-puro cells; assay: FACS analysis of the primary fusion products (ES-GFP × NS-Oct4-puro, 3 h after PEG fusion)
Description: ES-GFP cells were treated or not with BIO for 12, 24, 48, 72 and 96 h and subsequently PEG fused with NS-Oct4-puro cells. Hybrids were trypsinized, counted, resuspended in PBS (1×10^6 cells per point) and centrifuged. Then, 0.1 ml of 4% paraformaldehyde solution was added to the cells and they were incubated for 15 min. Blocking solution (0.1% Triton, 10% goat-serum, in PBS) was subsequently added and the cells incubated for 1 h. The cells were then labelled with α-nestin (1:100) (ab6142, Abcan) overnight. The day after, the cells were incubated with the secondary antibody conjugated with PE fluorocrome (1:50) (ab7002 Abcam) for 1 h. FACS analyses were performed using a BDBiosciences FACSAria cytometer.

[5] = test system: EF4 cells and NS-Oct4-(LV-Hygro) cells; assay: PEG fusions between BIO-pretreated EF4 (Nanog over-expressing) cells and NS-Oct4-(LV-Hygro) cells; settings: BIO-pretreated EF4 cells
Description: NS-Oct4-(LV-Hygro) cells were derived from NS-Oct4-puro and transduced with the letiviral pHRcPPT-PGK-Hygromycin vector. EF4 cells carrying the CAG promoter driving Nanog and Puromycin resistance genes were a gift of Dr. I. Chambers. Cells were cultured as previously described (Chambers et al., 2003).
NS×ES-Hygro or NS-HygroxEF4 cells PEG fusions were done as previously described. For the NS×ES-Hygro and NS×EF4 selection, Puromycin plus Hygromycin was added after 72 h.

[6] = test system: ES-neo cells and ES×NS reprogrammed hybrids; assay: Clonogenicity and viability of ES cells and hybrids plated in BIO-containing medium; settings: scaled numbers plated
Description: FIG. 4. […] ES-neo cells (A) and ES×NS reprogrammed hybrids (B) (treated or not for 24 h with BIO) were plated at different densities. After 10 days, the plates were stained for AP and counted. The fold-changes in colonies are shown in the graphs (mean±s.e.m.; n=3).

[7] = test system: ES-neo×NS-Oct4-puro cells; assay: PEG fusion of ES-neo cells with NS-Oct4-puro cells, hybrids treated after fusion; AP-positive puromycin-resistant reprogrammed colonies counted; settings: for reprogrammed clones with respect to the control (fold): 24 h culture after fusion, Wnt3a 100 ng/ml or BIO 1 μM; for number of reprogrammed clones after prolonged treatment: 48 h of treatment after fusion
Description: as §1

NS-Oct4-puro cells = assay: BIO-pretreated NS-Oct4-puro cells fused with non-treated ES-neo cells; settings: NS cells pretreated with BIO before fusion
Description: FIG. 12. […] (A) Plates containing fused hybrid colonies between BIO-treated NS-Oct4-puro cells and non-treated ES-neo cells. The clones were stained for the expression of AP and counted. The fold-change increases in the reprogrammed colonies are shown in the graph (mean±s.e.m.; n=3). (B) Example of a reprogrammed colony isolated from ES-neo cells fused with NS-Oct4-puro cells pretreated with BIO for 24 h. (C) Western blotting of total protein extracts of the NS-Oct4-puro cells at the indicated treatment times.
ES×NS and ES×MEF PEG fusions: 1.2×10^6 NS cells or MEFs were plated into T25 flasks. After 2 h, 1.2×10^6 ES cells were plated onto them, allowing them to attach to the NS cells or MEFs. After a further 2 h, 1 ml 50% (w/v) PEG 1450 (Sigma; pre-warmed to 37° C.) was added for 2 min, and then the cells were washed three times with serum-free DMEM. […] After 12 h, the cells were trypsinized and plated into gelatin+laminin-treated p100 dishes. For the ES×NS selection, puromycin was added after 72 h, while for the ES×MEF selection, hygromycin plus neomycin were added after 24 h.

β-catenin = assay: Western blotting and immunofluorescence of β-catenin in treated ES cells
Description: ES cells were washed twice with phosphate-buffered saline (PBS), fixed with 4% paraformaldehyde and blocked in 5% goat serum for 40 min. […] The cells were then washed and mounted on slides with a few drops of Vectashield with DAPI (Vector Laboratories).

[8] = test system: Nanog, Oct4, Rex1, Fgf4, c-Myc; assay: Semiquantitative and quantitative RT-PCR of ES-cell genes and β-catenin targets in pretreated ES cells; settings: for expression of pluripotent genes Nanog, Oct4, Rex1 and Fgf4: all treatment times; for c-Myc expression: under Wnt3a and BIO treatments
Description: For RT-PCR, the total RNA was extracted from ES cells and from embryoid bodies (200 embryoid bodies for each clone and for each differentiation time point) using the RNeasy Kit (Qiagen), and the cDNA was generated using superscript III (Invitrogen). The primers used were: […]
RNA isolation and reverse transcription were carried out as described for semiquantitative RT-PCR. The template for each PCR reaction was the cDNA obtained from 16 ng total RNA in a 25-μl reaction volume. Platinum SYBR green qPCix-UDG (Invitrogen) was used with an ABprism 7000 real-time PCR machine, according to the manufacturer recommendations. The primers used were: […]

NS cells = assay: Toxicity of BIO to NS cells (data not shown); settings: BIO concentrations higher than 1 μM
[9] = test system: ES-neo cells with ES-Hygro cells; assay: PEG fusion of BIO-pretreated ES-neo cells with ES-Hygro cells (fusion control)
Description: FIG. 6. […] Plates containing fused hybrid colonies between ES-neo cells (treated or not for 24 h with BIO) and non-treated ES-hygro cells. The clones were stained for the expression of AP and counted. The fold-change of colonies are shown in the graphs (mean±s.e.m.; n=3). (B) Quantification (as fold-increases in the number of colonies) of hybrid colonies from PEG fusions of ES-neo cells with NS-Oct4-puro cells. Hybrids from two fusion experiments (2,000,000 cells/flask) were allowed to recover for 3 h after PEG fusion. They were then pooled and divided in 5 plates ([…]) in such a way that the cells were not touching each other. Two hours after the plating, the cells were treated with BIO, as indicated. The fold-change increases in the reprogrammed colonies are shown in the graphs (mean±s.e.m.; n=3).

[10] = cultured in BIO for 12, 24 and 48 h, double-drug selected
[11] = increased treatment time with BIO
[12] = increasing BIO concentrations, 24 h

With `O=C1Nc2cc(Br)ccc2/C1=C1/Nc2ccccc2/C1=N\O` [BIO, 6-bromoindirubin-3′-oxime] the “enhancement of NS reprogramming” value [1] was “poor enhancement”, the total reprogrammed clones [1] was “about 2,000 total clones” and the “increase in the numbers of reprogrammed clones” value [1] was no more than 80 fold. The “increase in numbers of reprogrammed selected clones vs fusions in the absence of BIO” value (ES-neo×MEF-hygro; [10]) was “up to 20 fold”, the “reprogramming efficiency with increased treatment time” value (ES-neo×MEF-hygro; [11]) was “lower” and the “increase in numbers of reprogrammed selected clones vs fusions in the absence of BIO” value [2, 10] was no more than 9 fold. For the same molecule, the “reprogramming efficiency with increased treatment time” value [2, 11] was “lower”, the “activation of the Topflash reporter gene” value ([3]; 1 μM BIO) was “relatively limited activation” and the “Topflash activation with increasing concentration” value ([3]; increasing BIO concentrations) was “increased Topflash activation”. For the same molecule, the “number of hybrid clones, ES cells pre-treated or not with BIO before fusion” value [4] was “same number of hybrid clones”, the “reprogramming of NS cells with Nanog over-expression plus Wnt pathway activation” value [5] was “cooperate to enhance reprogramming” and the “clonogenicity and viability in absence vs presence of BIO” value [6] was “equal”. The “reprogrammed clones with respect to the control (fold)” value [7] was “up to 70 fold”, the “number of reprogrammed clones after prolonged treatment” value [7] was “decreased” and the “time of BIO treatment giving the peak of reprogrammed clones” value ([7]; hybrids re-plated 3 h after fusion at a dilution without cell contact, BIO for 12, 24, 48 and 72 h) was 24 h. The “number of ES-cell-like, AP-positive reprogrammed clones” value (NS-Oct4-puro cells) was “only a slight increase”, the “inhibition of GSK-3 in ES cells” value (β-catenin; 1 μM BIO) was “not fully inhibited” and the “levels of phospho-β-catenin with increasing concentration” value (β-catenin; [12]) was “decreased levels of phospho-β-catenin”. For the same molecule, the “β-catenin nuclear localization with increasing concentration” value (β-catenin; [12]) was “increased β-catenin nuclear localization”, the “expression of pluripotent genes Nanog, Oct4, Rex1 and Fgf4” value [8] was “same levels” and the c-Myc expression [8] was “constantly expressed”. For the same molecule, the “toxicity to NS cells” value (NS cells) was “slightly toxic” and the “number of clones after ES×ES fusion (PEG-mediated fusion)” value [9] was “only a slight increase”.

B1: Wnt3a: Wnt protein isoform (R&D), Wnt/β-catenin pathway activator (protein, UniProt P56704 19-352, looked up)
Protein Wnt-3a: SYPIWWSLAVGPQYSSLGSQPILCASIPGLVPKQLRFCRNYVEIMPSVAEGIKIGIQECQHQFRGRRWNCTTVHDSLAIFGPVLDKATRESAFVHAIASAGVAFAVTRSCAEGTAAICGCSSRHQGSPGKGWKWGGCSEDIEFGGMVSREFADARENRPDARSAMNRHNNEAGRQAIASHMHLKCKCHGLSGSCEVKTCWWSQPDFRAIGDFLKDKYDSASEMVVEKHRESRGWVETLRPRYTYFKVPTERDLVYYEASPNFCEPNPETGSFGTRDRTCNVSSHGIDGCDLLCCGRGHNARAERRREKCRCVFHWCCYVSCQECTRVYDVHTCK
With B1 the “enhancement of NS reprogramming” value [1] was “poor enhancement”, the total reprogrammed clones [1] was “about 600 total clones” and the “increase in the numbers of reprogrammed clones” value [1] was “Up to 15 fold”. The “increase in number of AP-positive reprogrammed clones” value (ES-neo×MEF-hygro; hybrids cultured with Wnt3a for 48 h) was “up to 5 fold”, the “reprogrammed clones with respect to the control (fold)” value [7] was “up to 20 fold” and the “number of reprogrammed clones after prolonged treatment” value [7] was “decreased”. The “expression of pluripotent genes Nanog, Oct4, Rex1 and Fgf4” value [8] was “same levels” and the c-Myc expression [8] was “constantly expressed”.
